Legend:
[1] = tested on: Brain cancer (U-87MG) cells; test: Cell death by combination treatment with anti-cancer drug (MTT); type: cell-based; details: Homo sapiens, ADP-ribose 1.6 μM in combination with bevacizumab, 24 hours, P<0.001
Description: 3×10^3 Brain cancer (U-87MG), lung cancer (H1975), pancreatic cancer (Aspc-1), liver cancer (Hep G2), breast cancer (MDA-MB-231), and colon cancer (HCT116) cells were cultured in a 96-well plate for 24 hours under conditions of 37° C. and 5% Ca2, respectively. […] After the treatment was terminated, the cells were cultured for 24 hours under conditions of 37° C. and 5% CO2 again, 10 μl of 3-(4,5-dimethylthiazol-2-yl)-2,5-diphenyltetrazolium bromide reagent was added to each well and reacted for 1 hour. After the reaction was completed, the reagent was removed, 200 μl of dimethyl sulfoxide was added to each well, and the absorbance was measured to compare the degree of cell death.
3×10^3 Brain cancer (U-87MG) cells were cultured in a 96-well plate for 24 hours under conditions of 37° C. and 5% CO2, treated with ADP-ribose at a concentration of 1.6 μM and bevacizumab at 15 mM, individually or in combination, and cultured for 24 hours under conditions of 37° C. and 5% CO2 again. Then, 10 μl of 3-(4,5-dimethylthiazol-2-yl)-2,5-diphenyltetrazolium bromide reagent was added to each well and reacted for 1 hour. After the reaction was completed, the reagent was removed, 200 μl of dimethyl sulfoxide was added to each well, and the absorbance was measured to confirm cell viability.

[2] = tested on: Kidney cancer (Caki-1) cells; test: Xenograft model, intravenous ADP-ribose, tumor volume; type: in vivo, BALB/c nude mice; details: Caki-1 xenograft, 3 times a week, control about 2074.9
Description: (§1) Pancreatic cancer (AsPC-1) or kidney cancer (Caki-1) cells (1×10^7 cells) were inoculated into 5-week-old BALB/c nude mice on the back flank, and the mice were grown up to approximately 150 mm^3 of the tumor volume. Then, three concentrations of ADP-ribose were administered subcutaneously, intravenously, and orally 3 times a week. The tumor size was measured every 6 days using a digital caliper, and the changes in tumor volume were compared for each group.
(§2) Kidney cancer (Caki-1) cells (1×10^7) were inoculated into 5-week-old BALB/c nude mice on the back flank, and the mice were divided into 4 groups: the control group (Control) and groups injected intravenously with 2, 10, and 20 mg/kg of ADP-ribose. When the tumors were grown to a volume of approximately 150 mm^3, each concentration of ADP-ribose was […] injected 3 times a week. The tumor size was measured using a digital caliper, and the results of changes in tumor volume were compared by the group.

[3] = tested on: AsPC-1 cells; test: Change over time in intracellular ADP-ribose, radiation versus ADP-ribose treatment (ELISA); type: cell-based; details: AsPC-1, 2 μM ADP-ribose, even after 24 hours; after radiation back to untreated level from 16 hours
Description: (§3) Brain cancer (U-87MG), kidney cancer (Caki-1), pancreatic cancer (AsPC-1), or breast cancer (MDA-MB-231) cells were cultured in a 6-well plate, respectively, and the cells were divided into the untreated group, the radiation-treated group, and the ADP-ribose-treated group. Irradiation was performed using an X-Rad 320 irradiator (Precision X-ray, North Branford, CT, USA), and cancer cells were treated with a total of 1, 2, and 5 Gy at a dose rate of 300 kVp and 150 cGy/min using an X-ray beam filter composed of 12.5 mA and 2.0 mm Al, respectively. Before treatment and at 4, 8, 16, and 24 hours after treatment, the medium was removed, the cells were washed with phosphate-buffered saline, and then RIPA buffer was added and the products were left on ice for 20 minutes. After scraping the cells, the cells were put in a centrifuge tube and centrifuged for 10 minutes at 10,000 g and 4° C. The supernatant was obtained, and 1% SDS was added, and then the reaction product was boiled at 100° C. for 5 minutes and cooled on ice. The supernatant was centrifuged again at 10,000 g and 4° C. for 10 minutes to obtain the final supernatant, and ADP-ribose was quantitatively analyzed using an ELISA analysis kit (Cell Biolabs, Inc., San Diego, CA, USA). […]

[4] = tested on: MDA-MB-231 cells; test: Cell death by combination treatment of ADP-ribose and radiation (MTT); type: cell-based; details: MDA-MB-231, 16 μM ADP-ribose in combination with 2 Gy radiation, 24 hours, P<0.001; 2 Gy alone about 90.6%
Description: (§5) 3×10^3 Brain cancer (U-87MG), lung cancer (H1975), pancreatic cancer (Aspc-1), liver cancer (Hep G2), breast cancer (MDA-MB-231), colon cancer (HCT116), and kidney cancer (Caki-1) cells were cultured in a 96-well plate for 24 hours under conditions of 37° C. and 5% CO2, treated with ADP-ribose or 2 or 5 Gy radiation alone or in combination with ADP-ribose and 2 Gy radiation, and cultured for 24 hours under conditions of 37° C. and 5% CO2 again. Then, 10 μl of 3-(4,5-dimethylthiazol-2-yl)-2,5-diphenyltetrazolium bromide reagent was added to each well and reacted for 1 hour. After the reaction was completed, the reagent was removed, 200 μl of dimethyl sulfoxide was added to each well, and the absorbance was measured to compare the degree of cell death.
3×10^3 MDA-MB-231 cells were cultured in a 96-well plate for 24 hours under conditions of 37° C. and 5% CO2, treated with 16 μM of ADP-ribose and 2 or 5 Gy dose of radiation individually or in combination, and cultured for 24 hours under conditions of 37° C. and 5% CO2 again. Then, 10 μl of 3-(4,5-dimethylthiazol-2-yl)-2,5-diphenyltetrazolium bromide reagent was added to each well and reacted for 1 hour. After the reaction was completed, the reagent was removed, 200 μl of dimethyl sulfoxide was added to each well, and the absorbance was measured to confirm cell viability.

[5] = tested on: Pancreatic cancer (AsPC-1) cells; test: Xenograft model, subcutaneous ADP-ribose, tumor volume; type: in vivo, BALB/c nude mice; details: AsPC-1 xenograft, 3 times a week, control about 2155.8
Description: as §1
as §2, with “Pancreatic” for “Kidney”, “(AsPC-1)” for “(Caki-1)”, “four” for “4”, “subcutaneously” for “intravenously”, “20,” for “10,”, “40” for “20”

[6] = tested on: Liver cancer (Hep G2) cells; test: Cell death by combination treatment with anti-cancer drug (MTT); details: Homo sapiens, HepG2, 24 h, read-out: viability of cancer cells
Description: 3×10^3 Liver cancer (Hep G2) cells were cultured in a 96-well plate for 24 hours under conditions of 37° C. and 5% CO2, treated with ADP-ribose at a concentration of 1.6 μM and sorafenib at 1 μM, individually or in combination, and cultured for 24 hours under conditions of 37° C. and 5% CO2 again. Then, 10 μl of 3-(4,5-dimethylthiazol-2-yl)-2,5-diphenyltetrazolium bromide reagent was added to each well and reacted for 1 hour. After the reaction was completed, the reagent was removed, 200 μl of dimethyl sulfoxide was added to each well, and the absorbance was measured to confirm cell viability.

[7] = tested on: Hep G2 cells; test: Cell death by combination treatment of ADP-ribose and radiation (MTT); type: cell-based; details: Hep G2, 4 μM ADP-ribose in combination with 2 Gy radiation, 24 hours, P<0.001; 2 Gy alone about 82.3%
Description: as §5
3×10^3 Hep G2 cells were cultured in a 96-well plate for 24 hours under conditions of 37° C. and 5% CO2, treated with 4 μM of ADP-ribose and 2 or 5 Gy dose of radiation individually or in combination, and cultured for 24 hours under conditions of 37° C. and 5% CO2 again. Then, 10 μl of 3-(4,5-dimethylthiazol-2-yl)-2,5-diphenyltetrazolium bromide reagent was added to each well and reacted for 1 hour. After the reaction was completed, the reagent was removed, 200 μl of dimethyl sulfoxide was added to each well, and the absorbance was measured to confirm cell viability.

[8] = tested on: human dermal papilla cell (HDPC); test: Toxicity in normal cells (MTT assay); type: cell-based; details: ADP-ribose 25, 50, 100 ul, 24, 48 and 72 hours
Description: (§4) As normal cells, human colon fibroblast (CCD-18Co) and human dermal papilla cell (HDPC) cells were used. […] Then, the cells were divided into a total of 4 groups: ADP-ribose untreated group (Untreated), and treated groups (treated with increased concentrations of 25, 50, 100 ul). Cell viability was compared by MTT assay after 24, 48, and 72 hours of drug treatment.

[9] = tested on: human colon fibroblast (CCD-18Co); test: Toxicity in normal cells (MTT assay); type: cell-based; details: ADP-ribose 25, 50, 100 ul, 24, 48 and 72 hours
Description: as §4

[10] = tested on: AsPC-1 cells; test: Cell death by combination treatment of ADP-ribose and radiation (MTT); type: cell-based; details: AsPC-1, 2 μM ADP-ribose in combination with 2 Gy radiation, 24 hours, P<0.001; 2 Gy alone about 87.3%
Description: as §5
3×10^3 AsPC-1 cells were cultured in a 96-well plate for 24 hours under conditions of 37° C. and 5% CO2, treated with 2 μM of ADP-ribose and 2 or 5 Gy dose of radiation individually or in combination, and cultured for 24 hours under conditions of 37° C. and 5% CO2 again. Then, 10 μl of 3-(4,5-dimethylthiazol-2-yl)-2,5-diphenyltetrazolium bromide reagent was added to each well and reacted for 1 hour. After the reaction was completed, the reagent was removed, 200 μl of dimethyl sulfoxide was added to each well, and the absorbance was measured to confirm cell viability.

[11] = tested on: MDA-MB-231 cells; test: Change over time in intracellular ADP-ribose, radiation versus ADP-ribose treatment (ELISA); type: cell-based; details: MDA-MB-231, 16 μM ADP-ribose, even after 24 hours; after radiation back to untreated level from 16 hours
Description: as §3

[12] = tested on: HCT116 cells; test: Cancer cell death verification (MTT cell viability); type: cell-based
Description: 3×10^3 Brain cancer (U-87MG), lung cancer (H1975), pancreatic cancer (Aspc-1), liver cancer (Hep G2), breast cancer (MDA-MB-231), colon cancer (HCT116), kidney cancer (Caki-1), gastric cancer (SNU-1) and ovarian cancer (OVCAR-3) cells were cultured in a 96-well plate under conditions of 37° C. and 5% CO2 for 24 hours, and then each cancer cell was treated with ADP-ribose at each concentration. After culturing for 24 hours under conditions of 37° C. and 5% CO2 again, 10 μl of 3-(4,5-dimethylthiazol-2-yl)-2,5-diphenyltetrazolium bromide reagent was added to each well and reacted for 1 hour. After the reaction was completed, the reagent was removed, 200 μl of dimethyl sulfoxide was added to each well, and the absorbance was measured to determine the concentration of half-lethality and maximum lethality compared to untreated cells.
3×10^3 HCT116 cells were cultured in a 96-well plate for 24 hours under conditions of 37° C. and 5% Ca2, treated with ADP-ribose at concentrations of 0.125, 0.25, 0.5, 1, 2, 4, 8, 16, and 32 μM, respectively, and cultured again for 24 hours under conditions of 37° C. and 5% CO2. Then, 10 μl of 3-(4,5-dimethylthiazol-2-yl)-2,5-diphenyltetrazolium bromide reagent was added to each well and reacted for 1 hour. After the reaction was completed, the reagent was removed, 200 μl of dimethyl sulfoxide was added to each well, and the absorbance was measured to confirm cell viability.

`Nc1ncnc2c1ncn2[C@@H]1O[C@H](COP(=O)(O)OP(=O)(O)OC[C@H]2O[C@@H](O)C(O)C2O)C(O)C1O` (stereo partly drawn) [ADP-ribose, adenosine diphosphate ribose] showed a viability at 1.6 µM [1] of ~18%, a final tumor volume ([2]; 2 mg/kg intravenous) of 706.7 mm^3 and a final tumor volume ([2]; 10 mg/kg intravenous) of 331.7 mm^3. For the same compound, the final tumor volume ([2]; 20 mg/kg intravenous) was 227.2 mm^3, the “amount of ADP-ribose in the cells over time compared to the control group” value [3] was “maintained a significant (P<0.001) increase” and the “survival rate of cancer cells” value [4] was “about 11.3%”. The final tumor volume ([5]; 2 mg/kg subcutaneous) was 1015.8 mm^3, the final tumor volume ([5]; 20 mg/kg subcutaneous) was 496.6 mm^3 and the final tumor volume ([5]; 40 mg/kg subcutaneous) was 336.2 mm^3. For the same compound, the viability at 1.6 µM [6] was ~0.9%, the “survival rate of cancer cells” value [7] was “about 7.3%” and the “toxicity to normal cells (cell viability, MTT assay)” value [8] was “no toxicity was observed”. The “toxicity to normal cells (cell viability, MTT assay)” value [9] was “no toxicity was observed”, the “survival rate of cancer cells” value [10] was “about 8%” and the “amount of ADP-ribose in the cells over time compared to the control group” value [11] was “maintained a significant (P<0.001) increase”. For the same compound, the “maximum lethal dose (concentration at which almost all cells were killed)” value ([12]; HCT116, 24 hours, MTT) was 32 µM, the “cancer cell growth under a microscope” value ([12]; HCT116, ADP-ribose treated vs control, FIG. 7A) was “inhibited from growing and killed” and the IC50 ([12]; Homo sapiens, HCT-116, 24 h, read-out: half-lethal dose (concentration at which about half of the cells were killed)) was ~8 µM.
